Bounds are passed on as bounds.

Assay [1] can be described thus: Inhibition of GGTase 1.
Assay [2] is described as follows: Inhibition of FTase.
Assay [3] can be described thus: Activity of GGTase 1.
Assay [4] can be described thus: Activity of FTase.

For `C=CC/C(=C\COP(=O)(O)OP(=O)(O)O)CC/C=C(\C)CC/C=C(\C)CCC=C(C)C`, the IC50 amounted to 846 nM in assay [1] and 453 nM in assay [2]. In the same order, the values of `C=C/C(=C\CC/C(C)=C/COP(=O)(O)OP(=O)(O)O)CC/C=C(\C)CCC=C(C)C` are 1000 nM and above 5000 nM. Take `C=C/C(=C\COP(=O)(O)OP(=O)(O)O)CC/C=C(\C)CC/C=C(\C)CCC=C(C)C`: the IC50 in assay [2] stood at 715 nM. Besides, the Km in assay [3] amounted to 1.75 µM.

Regarding `C=CC/C(=C\COP(=O)(O)OP(=O)(O)O)CC/C=C(\C)CCC=C(C)C`, half-maximal inhibition in assay [2] (IC50) required 189 nM.

Consider `C=CC/C(=C\CC/C(C)=C/COP(=O)(O)OP(=O)(O)O)CC/C=C(\C)CCC=C(C)C`, for which, in assay [2], the IC50 was above 5000 nM. Besides, in assay [3], the Km was 0.027 µM. As for `C=C/C(=C\COP(=O)(O)OP(=O)(O)O)CC/C=C(\C)CCC=C(C)C`, in assay [4], the Km amounted to 0.156 µM.

The values are drawn from ChEMBL document CHEMBL1141542, “Synthesis and evaluation of 3- and 7-substituted geranylgeranyl pyrophosphate analogs” (Bioorg Med Chem Lett, 2008).
